We go through 13 compounds from patent US11292796B2 (SIGNAL PHARMACEUTICALS, LLC, priority 2008, dated 2022).

Structures are written as SMILES. pIC50: −log10 of the molar value.

For orientation: pIC50 means the negative decadic logarithm of the IC50, by convention in mol/L.

In this assay the target is T1, mTOR (Homo sapiens, UniProt P42345).
T1 construct: purchased Invitrogen PR8683A
T1 sequence (P42345 1360-2549 limits assumed): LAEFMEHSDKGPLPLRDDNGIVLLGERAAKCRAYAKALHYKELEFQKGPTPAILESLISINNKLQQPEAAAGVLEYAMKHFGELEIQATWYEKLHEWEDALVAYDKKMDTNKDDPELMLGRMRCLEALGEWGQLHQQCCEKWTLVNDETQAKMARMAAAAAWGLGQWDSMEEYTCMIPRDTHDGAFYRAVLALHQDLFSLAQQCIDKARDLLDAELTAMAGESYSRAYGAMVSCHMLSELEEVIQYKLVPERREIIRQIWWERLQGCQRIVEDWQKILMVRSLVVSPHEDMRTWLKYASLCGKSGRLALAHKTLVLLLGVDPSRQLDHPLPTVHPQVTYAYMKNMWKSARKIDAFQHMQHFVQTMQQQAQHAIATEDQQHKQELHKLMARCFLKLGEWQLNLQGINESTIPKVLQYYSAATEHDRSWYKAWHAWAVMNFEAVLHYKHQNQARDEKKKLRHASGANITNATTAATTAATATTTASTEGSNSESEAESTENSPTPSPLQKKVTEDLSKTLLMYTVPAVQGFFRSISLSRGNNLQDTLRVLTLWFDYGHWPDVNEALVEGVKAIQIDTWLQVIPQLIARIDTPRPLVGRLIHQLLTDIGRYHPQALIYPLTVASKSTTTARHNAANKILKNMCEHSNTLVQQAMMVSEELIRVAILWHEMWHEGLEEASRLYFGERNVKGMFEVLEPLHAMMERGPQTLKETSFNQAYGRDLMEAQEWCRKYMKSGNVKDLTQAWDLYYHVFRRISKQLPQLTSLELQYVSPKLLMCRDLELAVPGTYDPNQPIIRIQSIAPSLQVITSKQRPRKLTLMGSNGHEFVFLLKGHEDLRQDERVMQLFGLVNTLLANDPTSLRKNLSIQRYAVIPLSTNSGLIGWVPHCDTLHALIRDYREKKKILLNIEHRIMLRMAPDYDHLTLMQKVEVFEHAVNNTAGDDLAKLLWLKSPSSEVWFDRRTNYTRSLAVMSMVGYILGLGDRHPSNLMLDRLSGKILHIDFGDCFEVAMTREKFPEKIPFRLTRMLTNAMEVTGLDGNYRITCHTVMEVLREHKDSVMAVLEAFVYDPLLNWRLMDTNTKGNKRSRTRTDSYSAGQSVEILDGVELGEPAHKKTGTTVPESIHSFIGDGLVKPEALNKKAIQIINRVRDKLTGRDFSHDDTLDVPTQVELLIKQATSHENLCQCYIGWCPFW
Kind of assay: mTOR HTR-FRET assay. In kind it is biochemical. The following applies: read-out: Act. Level (IC50 in mTor HTR-FRET assay). The method in brief: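 Test compounds, taken from 10 mM DMSO stocks and diluted, were mixed with mTOR enzyme (0.200 μg/mL) in Tris buffer pH 7.4 with 100 mM NaCl, 0.1% Tween-20 and 1 mM DTT. ATP/substrate addition initiated the reaction, alongside compound-free controls.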
For `COCCN1C(=O)CNc2ncc(-c3ccc(-c4nnc[nH]4)c(F)c3)nc21` [Example 242, 7-(3-fluoro-4-(4H-1,2,4-triazol-3-yl)phenyl)-1-(2-methoxyethyl)-3,4-dihydropyrazino[2,3-b]pyrazin-2(1H)-one], the negative logarithm of the IC50 (pIC50) was 6.60 to 11.30.

`O=C1CNc2ncc(-c3ccc(-c4nnc[nH]4)c(F)c3)nc2N1CCC1CCOCC1` [Example 243, 7-(3-fluoro-4-(4H-1,2,4-triazol-3-yl)phenyl)-1-(2-(tetrahydro-2H-pyran-4-yl)ethyl)-3,4-dihydropyrazino[2,3-b]pyrazin-2(1H)-one]: the pIC50 is 6.60 to 11.30.

As for `COCCN1C(=O)CNc2ncc(-c3ccc(-c4nc[nH]n4)c(F)c3C)nc21` [Example 244, 7-(3-fluoro-2-methyl-4-(1H-1,2,4-triazol-3-yl)phenyl)-1-(2-methoxyethyl)-3,4-dihydropyrazino[2,3-b]pyrazin-2(1H)-one], the pIC50 is 6.60 to 11.30.

Take `Cc1cc(-c2nnc[nH]2)c(F)cc1-c1cnc2c(n1)N(CCC1CCOCC1)C(=O)CN2` [Example 247, 7-(5-fluoro-2-methyl-4-(4H-1,2,4-triazol-3-yl)phenyl)-1-(2-(tetrahydro-2H-pyran-4-yl)ethyl)-3,4-dihydropyrazino[2,3-b]pyrazin-2(1H)-one]: the pIC50 was 6.60 to 11.30.

For `Cc1c(-c2cnc3c(n2)N(CCC2CCOCC2)C(=O)CN3)ccc(-c2nc[nH]n2)c1F` [Example 248, 7-(3-fluoro-2-methyl-4-(1H-1,2,4-triazol-3-yl)phenyl)-1-(2-(tetrahydro-2H-pyran-4-yl)ethyl)-3,4-dihydropyrazino[2,3-b]pyrazin-2(1H)-one], the pIC50 was 6.60 to 11.30.

Regarding `CC(C)(O)c1ccc(-c2cnc3c(n2)N(CC2CCCC2)C(=O)CN3)cn1` [Example 251, 1-(cyclopentylmethyl)-7-(6-(2-hydroxypropan-2-yl)pyridin-3-yl)-3,4-dihydropyrazino[2,3-b]pyrazin-2(1H)-one], the pIC50 is 6.00 to 6.30.

As for `COCCN1C(=O)CNc2ncc(-c3ccc(C(C)(C)O)cc3)nc21` [Example 252, 7-(4-(2-hydroxypropan-2-yl)phenyl)-1-(2-methoxyethyl)-3,4-dihydropyrazino[2,3-b]pyrazin-2(1H)-one], the pIC50 is 5.00 to 6.00.

Consider `C[C@H](O)c1ccc(-c2cnc3c(n2)N(CCC2CCOCC2)C(=O)CN3)cn1` [Example 253, (S)-7-(6-(1-hydroxyethyl)pyridin-3-yl)-1-(2-(tetrahydro-2H-pyran-4-yl)ethyl)-3,4-dihydropyrazino[2,3-b]pyrazin-2(1H)-one], for which the pIC50 was 6.60 to 11.30.

Consider `C[C@@H](O)c1ccc(-c2cnc3c(n2)N(CCC2CCOCC2)C(=O)CN3)cn1` [Example 254, (R)-7-(6-(1-hydroxyethyl)pyridin-3-yl)-1-(2-(tetrahydro-2H-pyran-4-yl)ethyl)-3,4-dihydropyrazino[2,3-b]pyrazin-2(1H)-one], for which the pIC50 is 6.60 to 11.30.

Take `CC(C)(O)c1ccc(-c2cnc3c(n2)N(Cc2ccc(C(F)(F)F)cc2)C(=O)CN3)cn1` [Example 257, 7-(6-(2-hydroxypropan-2-yl)pyridin-3-yl)-1-(4-(trifluoromethyl)benzyl)-3,4-dihydropyrazino[2,3-b]pyrazin-2(1H)-one]: the pIC50 was 6.60 to 11.30.

For `CC(C)(O)c1ccc(-c2cnc3c(n2)N(Cc2cccc(C(F)(F)F)c2)C(=O)CN3)cn1` [Example 258, 7-(6-(2-hydroxypropan-2-yl)pyridin-3-yl)-1-(3-(trifluoromethyl)benzyl)-3,4-dihydropyrazino[2,3-b]pyrazin-2(1H)-one], the pIC50 was 6.60 to 11.30.

With `COCCCN1C(=O)CNc2ncc(-c3ccc(C(C)(C)O)nc3)nc21` [Example 259, 7-(6-(2-hydroxypropan-2-yl)pyridin-3-yl)-1-(3-methoxypropyl)-3,4-dihydropyrazino[2,3-b]pyrazin-2(1H)-one], the pIC50 is 6.60 to 11.30.

Turning to `Cc1cc(-c2nc[nH]n2)ncc1-c1cnc2c(n1)N(CCC1CCOCC1)C(=O)CN2` [Example 260, 7-(4-methyl-6-(1H-1,2,4-triazol-3-yl)pyridin-3-yl)-1-(2-(tetrahydro-2H-pyran-4-yl)ethyl)-3,4-dihydropyrazino[2,3-b]pyrazin-2(1H)-one], the pIC50 is 6.60 to 11.30.
